Assay results from patent US20160271153A1, “Novel Methods For The Treatment Of Cardiac Arrhythmias” (United States Government as Represented by The Department …, priority 2013, published 2016).
Positions count from the first letter of the chain named. “Also recorded” adds a separate entry of the source.

Assays:
Cav1-cSrc binding [1] = assay: Co-immunoprecipitation in HEK cells co-transfected with mouse cSrc and Cav1; format: cell-based; settings: 10 min
Experimental: (§1) Immunoprecipitation (IP) of Cav1 was conducted using a magnetic IP kit from Thermo Scientific (Waltham, Mass.). Protein lysates from total LV or isolated LV myocytes (with 1000 μg total protein) from control and ACES/8 mice were incubated with 10 μg of mouse anti-Cav1 monoclonal antibodies overnight at 4° C.
(§2) The immune complex was bound to protein A/G magnetic beads and collected with a magnetic stand. Proteins co-immunoprecipitated with Cav1 were eluted and subjected to gel electrophoresis and Western blotting using the antibodies described above where appropriate. The amount of proteins co-immunoprecipitated with Cav1 was normalized to total Cav1 co-immunoprecipitated in each sample. Similar methods were used to analyze the proteins that co-immunoprecipitated with Cav3 and cSrc using antibodies against Cav3 (mouse monoclonal, BD Biosciences, San Jose, Calif.) or cSrc (rabbit monoclonal, Cell Signaling Technology, Danvers, Mass.).
(§3) Transfection of HEK cells with designated plasmids was conducted using Lipofectamine 2000 according to manufacturer's protocol.
To test if increased Cav1 SNO could result in Cav1-cSrc dissociation, human embryonic kidney (HEK) cells transfected with mouse Cav1 and cSrc were treated with 20 μM nitric oxide (NO) donor S-nitroso-N-acetyl-DL-penicillamine (SNAP) or vehicle for 10 min.

WT mouse Cav1 = target: T1, WT mouse Cav1 (Mus musculus, UniProt P49817); assay: Biotin-switch assay for Cav1 S-nitrosation in transfected HEK cells, WT Cav1; format: cell-based; settings: SNAP 20 μM, 10 min
T1 construct: A full-length mouse Cav1 cDNA clone in pCMV-SPORT6 vector; host or cells: HEK cells
T1 sequence (P49817 1-178): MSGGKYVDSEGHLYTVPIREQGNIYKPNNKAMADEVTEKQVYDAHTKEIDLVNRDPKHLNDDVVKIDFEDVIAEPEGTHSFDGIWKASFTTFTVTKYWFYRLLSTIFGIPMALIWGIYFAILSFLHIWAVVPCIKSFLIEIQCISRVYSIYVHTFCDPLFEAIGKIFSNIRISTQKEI
Experimental: as §3
(§4) S-nitrosated Cav1 was detected in cells (isolated ventricular cardiomyocytes from control and ACES/8 mice or HEK cells transfected with WT Cav1 or Cav1 mutants [C156S, C143S or C133S], with or without NO donor, SNAP [20 μM, 10 min], treatment) using the methods described in Jaffrey et al., Protein S-nitrosylation: a physiological signal for neuronal nitric oxide, Nat Cell Biol. 2001, 3:193-197; and Haendeler et al., Redox regulatory and anti-apoptotic functions of thioredoxin depend on S-nitrosylation at cysteine 69, Nat Cell Biol. 2002, 4:743-749.
Cells were lysed with HENS buffer (25 mM HEPES, pH 7.7, 0.1 mM EDTA, 0.01 mM neocuproine and 1% SDS) and centrifuged at 20,000 g for 15 min. The total cell protein was incubated in 20 mM methylmethanthiosulphate (MMTS) for 20 min at 50° C. and vortexed for 5 s every 2 min. Cellular protein was precipitated with acetone.
(§5) After removing acetone, protein pellet was resuspended in HENS buffer. […] Cav1 was then immunoprecipitated from each sample using monoclonal Cav1 antibody (BD Biosciences, San Jose, Calif.), where S-nitrosated Cav1 was detected by HRP-conjugated streptavidin following gel electrophoresis and Western blotting. The amount of S-nitrosated Cav1 was quantified and normalized to total Cav1 in each sample

C156S Cav1 = target: T2, C156S Cav1 (Mus musculus, UniProt P49817, C156S); assay: Biotin-switch assay for Cav1 S-nitrosation in transfected HEK cells, C156S Cav1; format: cell-based; settings: SNAP 20 μM, 10 min
T2 construct: A full-length mouse Cav1 cDNA clone in pCMV-SPORT6 vector; expressed in transfected cells; host or cells: HEK cells
T2 sequence (P49817 1-178 C156S): T1 sequence (P49817 1-178) with C156S
Experimental: (§6) A full-length mouse Cav1 cDNA clone in pCMV-SPORT6 vector was acquired from Thermo Scientific (MGC mouse Cav1 cDNA, clone ID 4484857). The cysteine-to-serine Cav1 mutants (C133S, C143S and C156S) were generated from this WT mouse Cav1 clone using the QuickChange II Site-Directed Mutagenesis kit (Agilent Technologies) according to the manufacturer's instructions.
as §3
as §4, with “4:743-749. […]” for “4:743-749.”
as §5, with “The amount of S-nitrosated Cav1 was quantified and normalized to total Cav1 in each sample” left out

C133S Cav1 = target: T3, C133S Cav1 (Mus musculus, UniProt P49817, C133S); assay: Biotin-switch assay for Cav1 S-nitrosation in transfected HEK cells, C133S Cav1; format: cell-based; settings: SNAP 20 μM, 10 min
T3 construct: A full-length mouse Cav1 cDNA clone in pCMV-SPORT6 vector; expressed in transfected cells; host or cells: HEK cells
T3 sequence (P49817 1-178 C133S): T1 sequence (P49817 1-178) with C133S
Experimental: as §6, §3
as §4, with “4:743-749. […]” for “4:743-749.”
as §5, with “The amount of S-nitrosated Cav1 was quantified and normalized to total Cav1 in each sample” left out

C143S Cav1 = target: T4, C143S Cav1 (Mus musculus, UniProt P49817, C143S); assay: Biotin-switch assay for Cav1 S-nitrosation in transfected HEK cells, C143S Cav1; format: cell-based; settings: SNAP 20 μM, 10 min
T4 construct: A full-length mouse Cav1 cDNA clone in pCMV-SPORT6 vector; expressed in transfected cells; host or cells: HEK cells
T4 sequence (P49817 1-178 C143S): T1 sequence (P49817 1-178) with C143S
Experimental: as §6, §3
as §4, with “4:743-749. […]” for “4:743-749.”
as §5, with “The amount of S-nitrosated Cav1 was quantified and normalized to total Cav1 in each sample” left out

Cav1-eNOS interaction = assay: Co-immunoprecipitation with Cav1 in ACE8/8 LV, eNOS; format: in vivo, mouse; settings: ACE8/8 mice, MitoTEMPO 0.7 mg/kg/day i.p. for 2 weeks, n=6
Experimental: as §1, §2

Cx43 = assay: Western blot of LV protein lysates, Cx43; format: in vivo, mouse
Experimental: (§7) For Western blots, total protein lysates were prepared from the LV of 6 week-old WT control, ACE8/8 with and without 2 week treatment of mitochondria-targeted antioxidant (2-(2,2,6,6-Tetra-methylpiperidin-1-oxyl-4-ylamino)-2-oxoethyl)-triphenylphosphonium chloride (MitoTEMPO, see below), as well as from adult (2-4 month) Cav1−/− mice with and without 4 weeks treatment of cSrc inhibitor 1-(1,1-dimethylethyl)-[…]-1H-pyrazolo[3,4-d]pyrimidin-4-amine (PP1, see below).
(§8) In some cases, protein lysates were prepared from the LV cardiomyocytes isolated from ACE8/8 animals using described methods. 13 Total protein lysates were fractionated on 8-15% SDS-PAGE and transferred to PVDF membranes, incubated in 5% skim milk in PBS containing 0.1% Tween 20 (blocking buffer) for 1 h at room temperature, followed by overnight incubation at 4° C. with primary antibodies (rabbit monoclonal anti-cSrc, p-cSrc at Tyr416, Cx43, C-terminal Src kinase [CSK] and Tyr14 p-Cav1 antibodies from Cell Signaling, mouse monoclonal anti-Cav1 and Cav3 antibodies from BD Biosciences, rabbit monoclonal anti-eNOS, p-eNOS and nNOS antibodies from Santa Cruz).
(§9) For a loading control, the membranes were blotted with primary antibodies against glyceraldehydes-3-phosphate dehydrogenase (GAPDH) (Santa Cruz Biotech, Santa Cruz, Calif.). After washing, the membranes were incubated for 1 h at room temperature with alkaline phosphatase-conjugated secondary antibody diluted in blocking buffer, and bound antibodies were detected using a chemiluminescent alkaline phosphate substrate. Protein band intensities were quantified by densitometry (Quantity One Basic, Bio-Rad Laboratory, Hercules, Calif.) and the band densities of each protein in individual samples were normalized to that of GAPDH in the same sample.

p-cSrc at Tyr416 = assay: Western blot of LV protein lysates, p-cSrc; format: in vivo, mouse
Experimental: as §7, §8, §9

ACE8/8 mice = settings: cited from earlier work
Cav1-cSrc binding [2] = assay: Co-immunoprecipitation with Cav1 in ACE8/8 LV, cSrc; format: in vivo, mouse; settings: ACE8/8 mice, MitoTEMPO 0.7 mg/kg/day i.p. for 2 weeks, n=6
Experimental: as §1, §2

Cav1−/− mice [3] = assay: LV epicardial conduction velocity measurement (72-electrode Flex-MEA); format: in vivo, mouse
Experimental: LV conduction velocity was measured in anesthetized WT (n=6) and Cav1−/− (with and without 4 week PP1 treatment, n=6 in each group) mice using a flexible multielectrode array (Flex-MEA, 72 electrodes) system (Multichannel systems, Reutlingen, Germany) according to manufacturer's instructions.
Mid-anterior LV epicardial electrical propagation was recorded under right-ventricular pacing (750 bpm); the color mapping of LV conduction propagation, as well as the calculation of LV conduction velocity, were carried out using Cardio 2D software (Multichannel systems, Reutlingen, Germany)

Cav1−/− mice [4] = assay: Programmed ventricular stimulation, ventricular arrhythmia inducibility; format: in vivo, mouse; settings: 4 weeks of PP1, n=6, untreated Cav1−/− 75% inducible
Experimental: Surface electrocardiograms (ECG) were recorded and ventricular arrhythmia inducibility was determined in WT and Cav1^−/− with and without 4 weeks of PP1 treatment (n=4-6 in each group) using described methods under general anesthesia with isofurane as described in Berul et al., In vivo cardiac electrophysiology studies in the mouse, Circulation 1996, 94:2641-2648.
Surface electrocardiograms (ECG) were monitored and recorded with needle electrodes connected to a dual bioamplifier (PowerLab 26T, AD Instruments, Dunedin, New Zealand) as described in Yang et al., Exercise training and PI3Kα-induced electrical remodeling is independent of cellular hypertrophy and Akt signaling, J Mol Cell Cardiol. 2012, 53:532-541.
Programmed ventricular stimulation was performed with a RV epicardial electrode connected to STG1008 stimulator (Multichannel systems, Reutlingen, Germany), where eight consecutive beats were paced at 60 ms basic cycle length, followed by triple extrastimuli with incrementally deceasing cycle lengths between 20-55 ms, and inducible ventricular tachycardia was defined as >3 consecutive ventricular beats. See, Bevilacqua et al., A targeted disruption in connexin40 leads to distinct atrioventricular conduction defects, J Interv Card Electrophysiol. 2000, 4:459-467.

[5] = ACE8/8 mice, MitoTEMPO 0.7 mg/kg/day i.p. for 2 weeks
[6] = ACE8/8 mice, MitoTEMPO 0.7 mg/kg/day i.p. for 2 weeks, n=6
[7] = Cav1−/− mice, PP1 1.5 mg/kg/dose i.p. 3 times per week for 4 weeks, n=6, 1.5 mg/kg

## CC(=O)NC(C(=O)O)C(C)(C)SN=O (racemic) [SNAP, S-nitroso-N-acetyl-DL-penicillamine]
Cav1-cSrc binding [1]; HEK cells co-transfected with mouse cSrc and Cav1, SNAP 20 μM, n=4
  interaction between cSrc and Cav1 (in words): reduced
Cav1-cSrc binding [1]; HEK cells transfected with mouse Cav1 and cSrc, SNAP 20 μM
  decrease of Cav1-cSrc binding compared to control: 58%
WT mouse Cav1
  Cav1 SNO (S-nitrosation), WT Cav1: significantly increased
C156S Cav1
  Cav1 SNO (S-nitrosation), C156S Cav1: not
C133S Cav1
  Cav1 SNO (S-nitrosation), C133S Cav1: significantly increased
C143S Cav1
  Cav1 SNO (S-nitrosation), C143S Cav1: significantly increased

## CC1(C)CC(NC(=O)C[P+](c2ccccc2)(c2ccccc2)c2ccccc2)CC(C)(C)N1[O] [MitoTEMPO, (2-(2,2,6,6-Tetra-methylpiperidin-1-oxyl-4-ylamino)-2-oxoethyl)-triphenylphosphonium chloride]
Cav1-eNOS interaction
  Cav1-eNOS interaction in ACE8/8 LV (in words): reversed; also recorded: significantly reduced
Cx43; [5]
  increase of Cx43 expression compared to untreated ACE8/8 animals: 1.9 fold
Cx43; [6]
  Cx43 downregulation in ACE8/8 LV (in words): significantly attenuated
p-cSrc at Tyr416; [5]
  reduction of cardiac cSrc phosphorylation compared to untreated ACE8/8 animals: 63%
p-cSrc at Tyr416; [6]
  cSrc activation/phosphorylation in ACE8/8 LV (in words): significantly attenuated
ACE8/8 mice; MitoTEMPO 0.7 mg/kg/day i.p. for 2 weeks, to levels similar to WT controls
  elevated mitoROS in ACE8/8 hearts: normalizes
ACE8/8 mice; from Sovari et al. 2013
  Cx43 expression in ACE8/8 mice: restores
  gap junction conduction in ACE8/8 mice: normalizes
  ventricular arrhythmias and sudden cardiac death in ACE8/8 mice: ameliorates
Cav1-cSrc binding [2]
  Cav1-cSrc binding in ACE8/8 LV (in words): reversed; also recorded: restored

## Cc1ccc(-c2nn(C(C)(C)C)c3ncnc(N)c23)cc1 [PP1, 1-(1,1-dimethylethyl)-1-(4-methylphenyl)-1H-pyrazolo[3,4-d]pyrimidin-4-amine]
Cav1−/− mice [3]; 4 weeks of PP1 treatment
  LV conduction velocity in Cav1−/− LV (in words): normalized
Cav1−/− mice [3]; PP1 1.5 mg/kg/dose i.p. 3 times per week for 4 weeks, n=6, untreated Cav1−/− 0.35±0.03, WT 0.50±0.09
  LV conduction velocity: 0.43±0.01 mm/ms
Cx43; [7]
  LV Cx43 expression / Cx43 downregulation (in words): normalized; also recorded: prevented
p-cSrc at Tyr416; [7]
  LV p-cSrc expression / cSrc phosphorylation (in words): normalized; also recorded: prevented
Cav1−/− mice [4]
  inducible for ventricular arrhythmias / VT with programmed stimulation: 0%
